These results are taken from patent publication US7943646B2, “Benzamidine derivative, process for the preparation thereof and pharmaceutical composition comprising same” (Dong Wha Pharmaceutical Co., Ltd., priority 2006, dated 2011).

The test system of data set [1] is osteoclast differentiation. Put plainly: Inhibitory effect on osteoclast differentiation, co-culture of bone marrow cells and osteoblast, TRAP staining. Type of data set: cell-based, mouse. The settings on record: Mus musculus, Osteoclast, 168 h, read-out: inhibitory effect on osteoclast differentiation(%). An outline of the steps:
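Mouse ddY bone marrow cells (25,000/cm^2) were co-cultured with neonatal ICR calvarial osteoblasts (10,000/cm^2) and compound for 7 days, with 10^−7 M dexamethasone and 10^−8 M vitamin D3, refreshed every 2–3 days. TRAP-positive cells with ≥3 nuclei were counted and expressed as % inhibition versus negative controls.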

The next data set relates to HOS. Put plainly: Cytotoxicity test (MTT), HOS. The class given is cell-based. The note with it: 10^−6M, 72 hrs, in comparison with the control group. The protocol: (§1) The cytotoxic effect of the benzamidine derivative of the present invention was evaluated by carrying out the experiment described below.
(§2) The test substance was diluted in an appropriate solvent at a 10^−2 M concentration. This substance was diluted in an appropriate culture medium for the cells used in the cytotoxicity test to a concentration of […], and loaded into a 96-well plate in 100 μl per well. The cell lines to be used in the cytotoxicity test were plated on a 96-well plate in a dose of 1.0×10^4 cells/1OO μl per well and cultured for 72 hrs. 25 μl of MTT [3-(4,5-dimethyl-2-thiazolyl)-2,5-diphenyl-2H-tetrazolium bromide] dissolved in PBS (2 mg/mL) were added before 4 hrs of the end of culture. After completion of the reaction, the plates were centrifuged, the medium was discarded and 100 μl of DMSO was added to dissolve formazan. Finally, the absorbance of the developed plates was measured at 540 nm. The survival rates of the cells were expressed as % concentration values in comparison with the control group.

The test system of data set [2] is ovariectomized white mouse. Put plainly: Therapeutic effect in mouse model of osteoporosis induced by ovariectomy, trabecular bone volume of the femur by histomorphometry. The class given is in vivo. The note with it: read-out: Changes in trabecular bone volume (% relative to vehicle control). How it is done:
The therapeutic effect of each benzamidine derivate of the present invention was evaluated on the ovariectomized white mouse. The substances of Examples 18, 19 and 72 were administered from 4 weeks after operation for 4 weeks and the substances of Examples 27, 33, 36, 47, 53 and 59 were administered from 3 days after operation for 29 days. Thereafter, the changes in the trabecular bone volume (TBV) of the femur were observed via histomorphometry.
Female ddY mice (6-week-old, SLC, Japan) were used after acclimatization for 7 days. Animals to be test were allocated 5 per a plastic cage for mice, and raised in a temperature (20 to 25[…]) and humidity (30 to 35%) controlled room. Feed and water were supplied free to access.
Salts of the benzamidine derivative of the present invention (methanesulfonic acid or HCl) were dissolved or suspended in sterilized, distilled water or 5% DMSO, and administered at a dose of 10 ml per body weight (kg) in the form of a solution. The substances of Examples 18, 19 and 72 were administered from 4 weeks after operation for 4 weeks, and the substances of Examples 27, 33, 36, 47, 53 and 59 were administered from 3 days after operation for 29 days each at 50 mg/kg/day.
After all animals anesthetize using ketamine hydrochloride and xylazine hydrochloride, bilateral ovaries were removed in order to induce estrogen-deficient osteoporosis. After ovariectomy, the […] were closed by routine methods.
The left femur was separated at a final sacrifice day, and fixed in 10% neutral formalin, then decalcified in a decalcifying solution (solution composed of 2.44% formic acid, and 0.5 N sodium hydroxide). The decalcifying solution was exchanges once a day for 5 days. After completion of the decalcification, the femur was embedded in paraffin, sectioned (3 to 4 μM), and stained with a hematoxylin-eosin stain. Observation was made using optical micrography.
The trabecular bone volume was calculated using automated image analysis (analysis Image Processing; SIS, Germany) in the femur using a femur histological specimen prepared in the above manner. The trabecular bone volume was calculated as percentage (%) levels.
All the numeral values were determined and compared to that of the vehicle control used in each experiment, using the calculation by the following Equation 1. Change(%)=[(trabecular bone volume of a−trabecular bone volume of b)/trabecular bone volume of b]×100 [Equation 1]
a: Experiment group, b: Vehicle group

The next data set relates to calvaria. Put plainly: Cytotoxicity test (MTT), calvaria. The class given is cell-based. The settings on record: 10^−6M, 72 hrs, in comparison with the control group. How it is done:
as §1, §2

In the next data set the test system is MC3T3. The data set can be described thus: Cytotoxicity test (MTT), MC3T3. Type of data set: cell-based. The note with it: 10^−6M, 72 hrs, in comparison with the control group. How it is done: as §1, §2
[3] abbreviates: 1 μm, 7 days co-culture, TRAP-positive osteoclasts with 3 or more nuclei, relative to negative controls.
Where [4] appears, read: 672 h, ovariectomized ddY mice, femur, 50 mg/kg/day, administered from 4 weeks after operation for 4 weeks.
The mark [5] stands for this setting: 696 h, ovariectomized ddY mice, femur, 50 mg/kg/day, administered from 3 days after operation for 29 days.

Where two headings read alike, the source gives them in different places.

With `Cc1nc(-c2ccc(OCCCCCOc3ccc(C(=N)NO)cc3)cc2)c(CCN2CCOCC2)s1` [Example 18, N-hydroxy-4-(5-{4-[2-methyl-5-(2-morpholin-4-yl-ethyl)-thiazol-4-yl]-phenoxy}-pentyloxy)-benzamidine], the inhibition at 1 µM in data set [1] was 100%. Also, the “survival rates of the cells” value is given as 99.7% with HOS, 97.3% with calvaria and 94.4% in the data set on MC3T3. The change in vivo at 50 mg/kg/day in data set [2] (672 h) was found to be 139%.
Turning to `Cc1nc(-c2ccc(OCCCCCOc3ccc(C(=N)NO)cc3)cc2)c(CCN2CCN(C)CC2)s1` [Example 19, N-hydroxy-4-[5-(4-{2-methyl-5-[2-(4-methyl-piperazin-1-yl)-ethyl]-thiazol-4-yl}-phenoxy)-pentyloxy]-benzamidine], the inhibition at 1 µM in data set [1] (setting [3]) amounted to 100%. For the same molecule, the change in vivo at 50 mg/kg/day in data set [2] (setting [4]) was 2.99%.
As to `CC(C)c1nc(-c2ccc(OCCCCCOc3ccc(C(=N)NO)cc3)cc2)c(CCN2CCOCC2)s1` [Example 27, N-hydroxy-4-(5-{4-[2-isopropyl-5-(2-morpholin-4-yl-ethyl)-thiazol-4-yl]-phenoxy}-pentyloxy)-benzamidine], in data set [1] (setting [3]), the inhibition at 1 µM was determined as 81%. In addition, the change in vivo at 50 mg/kg/day in data set [2] (setting [5]) stood at 23.6%.
Turning to `N=C(NO)c1ccc(OCCCCCOc2ccc(-c3nc(C4CCCCC4)sc3CCN3CCOCC3)cc2)cc1` [Example 33, N-hydroxy-4-(5-{4-[2-cyclohexyl-5-(2-morpholin-4-yl-ethyl)-thiazol-4-yl]-phenoxy}-pentyloxy)-benzamidine], the inhibition at 1 µM in data set [1] turned out to be 92%. Further, the change in vivo at 50 mg/kg/day in data set [2] (696 h) amounted to 26.3%.
For `N=C(NO)c1ccc(OCCCCCOc2ccc(-c3nc(C4CCCCC4)sc3CCN3CCSCC3)cc2)cc1` [Example 36, N-hydroxy-4-(5-{4-[2-cyclohexyl-5-(2-thiomorpholin-4-yl-ethyl)-thiazol-4-yl]-phenoxy}-pentyloxy)-benzamidine], the inhibition at 1 µM in data set [1] was found to be 100%. In addition, the results for the “survival rates of the cells” value in the data set on HOS, in the data set with calvaria and in the data set on MC3T3 were 81.4%, 89.1% and 97.6%, respectively. Besides, the change in vivo at 50 mg/kg/day in data set [2] (696 h) worked out at 26.6%.
For `CNc1nc(-c2ccc(OCCCCCOc3ccc(C(=N)NO)cc3)cc2)c(CCN2CCOCC2)s1` [Example 47, N-hydroxy-4-(5-{4-[2-methylamino-5-(2-morpholin-4-yl-ethyl)-thiazol-4-yl]-phenoxy}-pentyloxy)-benzamidine], the inhibition at 1 µM in data set [1] (setting [3]) is 89.6%. The change in vivo at 50 mg/kg/day in data set [2] (setting [5]) was 5.77%.
On to `CN(C)c1nc(-c2ccc(OCCCCCOc3ccc(C(=N)NO)cc3)cc2)c(CCN2CCOCC2)s1` [Example 53, N-hydroxy-4-(5-{4-[2-dimethylamino-5-(2-morpholin-4-yl-ethyl)-thiazol-4-yl]-phenoxy}-pentyloxy)-benzamidine], for which the inhibition at 1 µM in data set [1] (setting [3]) stood at 99.3%. Also, the change in vivo at 50 mg/kg/day in data set [2] (setting [5]) was 25.6%.
For the molecule `COCCN(CCOC)c1nc(-c2ccc(OCCCCCOc3ccc(C(=N)NO)cc3)cc2)c(CCN2CCOCC2)s1` [Example 58, N-hydroxy-4-(5-{4-[2-[bis-(2-methoxy-ethyl)-amino]-5-(2-morpholin-4-yl-ethyl)-thiazol-4-yl]-phenoxy}-pentyloxy)-benzamidine], the inhibition at 1 µM in data set [1] (setting [3]) was 100%. The “survival rates of the cells” value was 85.4% with HOS, 76.8% with calvaria and 79.2% in the data set on MC3T3.
For the molecule `N=C(NO)c1ccc(OCCCCCOc2ccc(-c3nc(N4CCOCC4)sc3CCN3CCOCC3)cc2)cc1` [Example 59, N-hydroxy-4-(5-{4-[2-morpholin-4-yl-5-(2-morpholin-4-yl-ethyl)-thiazol-4-yl]-phenoxy}-pentyloxy)-benzamidine], in data set [1] (setting [3]), the inhibition at 1 µM amounted to 58%. In addition, the change in vivo at 50 mg/kg/day in data set [2] (setting [5]) amounted to 5.66%.
In the case of `N=C(NO)c1ccc(OCCCCCOc2ccc(-c3nc(N4CCOCC4)sc3CCNCCN3CCOCC3)cc2)cc1` [Example 62, N-hydroxy-4-[5-(4-{2-morpholin-4-yl-5-[2-(2-morpholin-4-yl-ethylamino)-ethyl]-thiazol-4-yl}-phenoxy)-pentyloxy]-benzamidine], in data set [1] (setting [3]), the inhibition at 1 µM is 43.6%. Besides, the “survival rates of the cells” value was found to be 95.1% with HOS, 92.7% with calvaria and 97.0% in the data set with MC3T3.
Consider `N=C(NO)c1ccc(OCCCCCOc2ccc(-c3nc(CN4CCCCC4)sc3CCN3CCOCC3)cc2)cc1` [Example 63, N-hydroxy-4-(5-{4-[5-(2-morpholin-4-yl-ethyl)-2-piperidin-1-yl-methyl-thiazol-4-yl]-phenoxy}-pentyloxy)-benzamidine], for which, in data set [1] (setting [3]), the inhibition at 1 µM was 99.2%. For the same molecule, the “survival rates of the cells” value is given as 86.5% with HOS, 86.9% in the data set on calvaria and 89.4% in the data set on MC3T3.
As for `CNC(=O)c1sc(N)nc1-c1ccc(OCCCCCOc2ccc(C(=N)NO)cc2)cc1` [Example 72, N-hydroxy-4-{5-[4-(2-amino-5-methylcarbamoyl-thiazol-4-yl)-phenoxy]-pentyloxy}-benzamidine], the inhibition at 1 µM in data set [1] (setting [3]) is 97.6%. In data set [2] (setting [4]), the change in vivo at 50 mg/kg/day amounted to 95.6%.
